Reference: US10391080B2, “Ketorolac for the treatment of cancer” (Cipla Limited, priority 2016, dated 2019)
Values belong to the compound of their own block, whether it stands above or below them.

What was measured:
[1] = tested on: tumor cell lines of renal cancer; test: In vitro 3D combination study, clonogenic assay, both cell lines; type: cell-based; conditions: Homo sapiens, A498; compound alone, colony formation in soft agar, range over RXF 1183L and RXF A-498; read-out: Relative IC50, single agent
Experimental: The objective of this study was to assess anti-tumor efficacy of ketorolac in combination with sunitinib in a 5×5 matrix combination format against tumor cell lines of renal cancer using a clonogenic assay with image analysis as read-out.
The clonogenic assay was carried out in a 96 well plate format using ultra low attachment plates. For each test cells were prepared as described above, and assay plates were prepared as follows: each test well contained a layer of semi-solid medium with tumor cells (50 μl), and a second layer of medium supernatant with or without test compounds (100 μl). The cell layer consisted of 3×10^3 to 1×10^4 tumor cells per well, which were seeded in 50 μl/well cell culture medium (IMDM, supplemented with 20% (v/v) fetal calf serum, 0.01% (w/v) gentamicin, and 0.4% (w/v) agar). The soft agar layer was immediately covered with 90 μl of the same culture medium without agar. After 24 h the test compounds were added after serial dilution in IMDM and transfer in cell culture medium, and left on the cells for the duration of the experiment (continuous exposure, 100 μL total drug overlay). Every plate included six untreated control wells and drug-treated groups in a layout as shown above. […] At the time of maximum colony formation, counts were performed with an automatic image analysis system (Celllnsight NXT, Thermo Scientific). […]

[2] = tested on: A498 cells; test: In vivo animal efficacy study, subcutaneous A498 tumor fragments; parameters: species or system female athymic nude mice; conditions: for Mean Tumor Volume / Tumor Growth Inhibition (% TGI): Sunitinib 20 mg/kg p.o. q.d. × 21 (G2)
Experimental: 10 Healthy female athymic nude mice were recruited for the donor cell inoculation. Animals were subcutaneously injected at flank region with 10 million A498 cells suspended in 200 μl of media and matrigel. Animals were monitored for solid tumor growth. […] Tumors were fragmented in to ˜30 mg size. […] [table] The tumor sizes were measured weekly twice from the date of tumor appearance till the end of the experiment. Tumor size was measured by digital vernier caliper (MITUTOYO) by measuring length (L=longest axis) and width (W=shortest axis). Tumor Volume was calculated using the formula: […] Form the tumor volume data mean tumor volume and % tumor growth inhibition (% TGI) were calculated (SEM=standard error of mean).

[3] = tested on: Par-4; conditions: mouse embryonic fibroblast (MEF) cells; cited from earlier work

IC50 [1]: 1.5 to 4.59 µM
SMILES: CCN(CC)CCNC(=O)c1c(C)[nH]c(/C=C2\C(=O)Nc3ccc(F)cc32)c1C [Sunitinib]
Mean Tumor Volume ([2]; day 1): 145.40 mm^3 | Tumor Growth Inhibition (% TGI) ([2]; day 1): 1.47% | Mean Tumor Volume ([2]; day 6): 174.90 mm^3 | Tumor Growth Inhibition (% TGI) ([2]; day 6): 47.31% | Mean Tumor Volume ([2]; day 9): 261.95 mm^3 | Tumor Growth Inhibition (% TGI) ([2]; day 9): 43.52% | Mean Tumor Volume ([2]; day 13): 340.62 mm^3 | Tumor Growth Inhibition (% TGI) ([2]; day 13): 44.80% | Mean Tumor Volume ([2]; day 16): 448.05 mm^3 | Tumor Growth Inhibition (% TGI) ([2]; day 16): 53.39% | Mean Tumor Volume ([2]; day 20): 630.25 mm^3 | Tumor Growth Inhibition (% TGI) ([2]; day 20): 50.78% | Maximum tumor inhibition ([2]; Sunitinib alone at a dose of 20 mg/kg): 51%

SMILES: COc1ccc(C2=N[C@@H](c3ccc(Cl)cc3)[C@@H](c3ccc(Cl)cc3)N2C(=O)N2CCNC(=O)C2)c(OC(C)C)c1 [Nutlin-3a]
PAR-4 secretion [3]: stimulated PAR-4 secretion at micromolar levels
